Results on 30 compounds are retold here after the supplement of paper PMC6965134.

± gives the standard deviation of the averaged measurements.

A short description of this series: TIMS collisional cross section (CCS, N2) of the lipid ion; higher = larger ion cross section. The conditions noted are these: ionization mode: negative, one isomer drawn. As to the method:
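Lipid extracts of human plasma (NIST SRM 1950), mouse liver or HeLa cells were separated by nanoflow C18 LC (30 min gradient) and analysed by TIMS-PASEF on a timsTOF Pro. Ion mobility was calibrated with the Agilent tuning mix (negative mode ions) and converted to collisional cross sections (Mason–Schamp, N2).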
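Note: lipids from MTBE extraction, five replicate injections per sample, 100 ms TIMS ramp spanning 0.6–1.95 Vs/cm², lipid identity assigned from PASEF MS/MS spectra.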

As for `CCCCCC/C=C\CCCCCCCCCC(=O)O[C@H](COC(=O)CCCCCCCCCCCCCC)COP(=O)([O-])OCC[N+](C)(C)C` [PC 15:0_18:1], the “TIMS collisional cross section” value (sample type: Human plasma, ion (formula + adduct): [C41H80NO8P+HCOO] 1-) is recorded as 288.8 Å². On to `CCCCCCC/C=C\CCCCCCCC(=O)O[C@H](COC(=O)CCCCCCCCCCCCC)COP(=O)([O-])OCC[N+](C)(C)C` [PC 14:0@_17:1], for which, where the note is “sample type: Mouse Liver, ion (formula + adduct): [C39H76NO8P-CH3] 1-”, the “TIMS collisional cross section” value turned out to be 265 Å². Regarding `CC/C=C\C/C=C\C/C=C\C/C=C\C/C=C\C/C=C\CCC(=O)O[C@H](CO/C=C\CCCCCC/C=C\CCCCCCCC)COP(=O)(O)OCCN` [PE P- 18:1@_22:6], the “TIMS collisional cross section” value (sample type: Mouse Liver, ion (formula + adduct): [C45H76NO7P-H] 1-) amounted to 278.5 Å². With `CCCCC/C=C\C/C=C\C/C=C\C/C=C\CCCC(=O)O[C@H](COC(=O)CCCCCCCCCCCCCCCCC)COP(=O)([O-])OCC[N+](C)(C)C` [PC 18:0@_20:4], for the setting “sample type: Human plasma, ion (formula + adduct): [C46H84NO8P+HCOO] 1-”, the “TIMS collisional cross section” value worked out at 297.2 Å². Turning to `CCCCC/C=C\C/C=C\CCCCCCCC(=O)O[C@H](CO/C=C\CCCCCCCCCCCCCCCC)COP(=O)(O)OCCN` [PE P- 18:0_18:2], the “TIMS collisional cross section” value (sample type: Human plasma, ion (formula + adduct): [C41H78NO7P-H] 1-) was 272.4 Å². In the case of `CCCCC/C=C\C/C=C\CCCCCCCC(=O)O[C@H](COC(=O)CCCCCCCCCCCCCC)COP(=O)([O-])OCC[N+](C)(C)C` [PC 15:0_18:2], the “TIMS collisional cross section” value (sample type: Human plasma, ion (formula + adduct): [C41H78NO8P+HCOO] 1-) is 288.2 Å² and the “TIMS collisional cross section” value (sample type: Mouse Liver, ion (formula + adduct): [C41H78NO8P+HCOO] 1-) is reported as 287.1 Å². With `CCCCC/C=C\C/C=C\CCCCCCCC(=O)OC[C@H](COP(=O)([O-])OCC[N+](C)(C)C)OC(=O)CCCCCCCCCCCCCCCCCC` [PC 18:2_19:0], the “TIMS collisional cross section” value (sample type: Mouse Liver, ion (formula + adduct): [C45H86NO8P+HCOO] 1-) amounted to 299 Å². Consider `CC/C=C\C/C=C\C/C=C\C/C=C\C/C=C\C/C=C\CCC(=O)OC[C@H](COP(=O)(O)OC[C@H](N)C(=O)O)OC(=O)CCCCCCCCCCCCCCCCC` [PS 22:6_18:0], for which the “TIMS collisional cross section” value (sample type: Mouse Liver, ion (formula + adduct): [C46H78NO10P-H] 1-) amounted to 289.7 Å².

As for `CC/C=C\C/C=C\C/C=C\C/C=C\C/C=C\C/C=C\CCC(=O)OC[C@H](COP(=O)(O)OC[C@@H](O)CO)OC(=O)CCCCCCC/C=C\CCCCCC` [PG 22:6@_16:1], the “TIMS collisional cross section” value (sample type: Mouse Liver, ion (formula + adduct): [C44H73O10P-H] 1-) was determined as 283 Å².

With `CC/C=C\C/C=C\C/C=C\C/C=C\C/C=C\C/C=C\CCC(=O)OC[C@H](COP(=O)(O)OC[C@@H](O)CO)OC(=O)CCCCC/C=C\C/C=C\C/C=C\C/C=C\CCCCC` [PG 22:6@_22:4], the “TIMS collisional cross section” value (sample type: Mouse Liver, ion (formula + adduct): [C50H79O10P-H] 1-) is given as 297.7 Å². For `CC/C=C\C/C=C\C/C=C\CCCCCCCC(=O)OC[C@@H](O)COP(=O)([O-])OCC[N+](C)(C)C` [LPC 18:3_0:0], the “TIMS collisional cross section” value runs as follows: (sample type: Human plasma, ion (formula + adduct): [C26H48NO7P+HCOO] 1-) 238.3 ± 0.42 Å²; (sample type: Human plasma, ion (formula + adduct): [C26H48NO7P-CH3] 1-) 220.2 Å². Consider `CCCCC/C=C\C/C=C\C/C=C\C/C=C\CCCCCC(=O)OC[C@@H](O)COP(=O)([O-])OCC[N+](C)(C)C` [LPC 22:4_0:0], for which the “TIMS collisional cross section” value is, setting by setting: (sample type: Human plasma, ion (formula + adduct): [C30H54NO7P+HCOO] 1-) 249 ± 0.42 Å²; (sample type: Human plasma, ion (formula + adduct): [C30H54NO7P-CH3] 1-) 231.5 Å²; (sample type: Mouse Liver, ion (formula + adduct): [C30H54NO7P+HCOO] 1-) 248.7 Å². With `CC/C=C\C/C=C\C/C=C\C/C=C\C/C=C\C/C=C\CCC(=O)O[C@H](CO/C=C\CCCCCCCCCCCCCC)COP(=O)(O)OCCN` [PE P- 16:0@_22:6], the “TIMS collisional cross section” value reads like this: (sample type: Human plasma, ion (formula + adduct): [C43H74NO7P-H] 1-) 274 Å²; (sample type: Mouse Liver, ion (formula + adduct): [C43H74NO7P-H] 1-) 274.6 Å². Regarding `CCCCCC/C=C\CCCCCCCC(=O)OC[C@@H](O)COP(=O)(O)OC1[C@H](O)[C@H](O)C(O)[C@H](O)[C@H]1O` (stereo partly drawn) [LPI 16:1_0:0], the “TIMS collisional cross section” value (sample type: Human plasma, ion (formula + adduct): [C25H47O12P-H] 1-) came out at 230.2 Å². Turning to `CC/C=C\C/C=C\C/C=C\C/C=C\C/C=C\CCCC(=O)O[C@H](COC(=O)CCCCCCC/C=C\CCCCCC)COP(=O)([O-])OCC[N+](C)(C)C` [PC 16:1_20:5], the “TIMS collisional cross section” value by setting is: (sample type: Human plasma, ion (formula + adduct): [C44H76NO8P+HCOO] 1-) 290.4 Å²; (sample type: Mouse Liver, ion (formula + adduct): [C44H76NO8P+HCOO] 1-) 290.4 Å². With `CCCCC/C=C\C[C@H](O)/C=C/C=C\C/C=C\CCCC(=O)O[C@H](CO/C=C\CCCCCCCCCCCCCC)COP(=O)(O)OCCN` [Oxidized PE 16:0@_20:4], the “TIMS collisional cross section” value (sample type: Human plasma, ion (formula + adduct): [C41H74NO8P+OAcO] 1-) amounted to 291.6 Å² and the “TIMS collisional cross section” value (sample type: Human plasma, ion (formula + adduct): [C41H74NO8P-H] 1-) is listed as 274.77 ± 1.5 Å². For the compound `CCCCC/C=C\C/C=C\C/C=C\C/C=C\CCCC(=O)O[C@H](COC(=O)CCCCCCC/C=C\CCCCCCCC)COP(=O)([O-])OCC[N+](C)(C)C` [PC 18:1@_20:4], the “TIMS collisional cross section” value (sample type: Human plasma, ion (formula + adduct): [C46H82NO8P+HCOO] 1-) worked out at 298.3 Å².

For `CCCCCCCC/C=C\CCCCCCCC(=O)OC[C@@H](O)COP(=O)(O)OC1[C@H](O)[C@H](O)C(O)[C@H](O)[C@H]1O` (stereo partly drawn) [LPI 18:1_0:0], the “TIMS collisional cross section” value (sample type: Human plasma, ion (formula + adduct): [C27H51O12P-H] 1-) is recorded as 238.3 Å². On to `CCCCCCCC/C=C\CCCCCCCC(=O)OC[C@@H](O)COP(=O)(O)OC[C@@H](O)CO` [LPG 18:1_0:0], for which the “TIMS collisional cross section” value (sample type: Mouse Liver, ion (formula + adduct): [C24H47O9P-H] 1-) was 221.1 Å².

Consider `CCCCC/C=C\C/C=C\CCCCCCCC(=O)OC[C@H](COP(=O)(O)OC1[C@H](O)[C@H](O)C(O)[C@H](O)[C@H]1O)OC(=O)CCCCCCC/C=C\CCCCCCCC` (stereo partly drawn) [PI 18:2_18:1], for which the “TIMS collisional cross section” value (sample type: Human plasma, ion (formula + adduct): [C45H81O13P-H] 1-) came to 292.5 Å² and the “TIMS collisional cross section” value (sample type: Mouse Liver, ion (formula + adduct): [C45H81O13P-H] 1-) is reported as 291.9 Å².

`CC/C=C\C/C=C\C/C=C\C/C=C\C/C=C\C/C=C\CCC(=O)O[C@H](COC(=O)CCC/C=C\C/C=C\C/C=C\C/C=C\CCCCC)COP(=O)(O)OCCN` [PE 20:4_22:6]: the “TIMS collisional cross section” value (sample type: Mouse Liver, ion (formula + adduct): [C47H74NO8P-H] 1-) is listed as 280.6 Å². Take `CCCCCCCCC/C=C\CCCCCCCC(=O)O[C@H](COCCCCCCCCCCCCCCCCCCCC)COP(=O)(O)OCCN` [PE O- 20:0@_19:1]: the “TIMS collisional cross section” value (sample type: Human plasma, ion (formula + adduct): [C44H88NO7P+AcO] 1-) came to 303.7 Å². In the case of `CCCCCCCCCCCCCCCCCCOC[C@H](COP(=O)([O-])OCC[N+](C)(C)C)OC(=O)CCCCCCCCCCCCCCC` [PC O- 18:0@_16:0], the “TIMS collisional cross section” value (sample type: Human plasma, ion (formula + adduct): [C42H86NO7P+HCOO] 1-) is recorded as 293.5 Å².

In the case of `C=CC(=O)O[C@H](COC(=O)CCCCCCCCCCCCCCCCC)COP(=O)([O-])OCC[N+](C)(C)C` [PC 18:0@_3:1], the “TIMS collisional cross section” value (sample type: Mouse Liver, ion (formula + adduct): [C29H56NO8P+OAcO] 1-) is 258.4 Å². For the compound `CCCCC/C=C\C/C=C\C/C=C\C/C=C\CCCCCC(=O)O[C@H](CO/C=C\CCCCCCCCCCCCCCCC)COP(=O)(O)OCCN` [PE P- 18:0_22:4], the “TIMS collisional cross section” value (sample type: Mouse Liver, ion (formula + adduct): [C45H82NO7P-H] 1-) came to 281.9 Å².

Consider `CCCCC/C=C\C/C=C\C/C=C\CCCCC(=O)O[C@H](COC(=O)CCCCCCCCCCCCCCC)COP(=O)([O-])OCC[N+](C)(C)C` [PC 16:0@_18:3], for which, for the setting “sample type: Human plasma, ion (formula + adduct): [C42H78NO8P+AcO] 1-”, the “TIMS collisional cross section” value was determined as 295.1 Å². With `CCCCCCCC/C=C\CCCCCCCCOC[C@H](COP(=O)([O-])OCC[N+](C)(C)C)OC(=O)CCCCCCCCCCCCCCC` [PC O- 18:1@_16:0], the “TIMS collisional cross section” value (sample type: Human plasma, ion (formula + adduct): [C42H84NO7P+HCOO] 1-) turned out to be 291.1 Å². `CCCCC/C=C\C/C=C\C/C=C\CCCCCCC(=O)OC[C@H](COP(=O)(O)OC[C@H](N)C(=O)O)OC(=O)CCCCCCCCCCCCCCC` [PS 20:3@_16:0]: the “TIMS collisional cross section” value (sample type: Mouse Liver, ion (formula + adduct): [C42H76NO10P-H] 1-) came out at 281.3 Å². In the case of `CC/C=C\C/C=C\C/C=C\C/C=C\C/C=C\C/C=C\CCC(=O)O[C@H](COC(=O)CCCCCCCCC/C=C\C/C=C\CCCCC)COP(=O)([O-])OCC[N+](C)(C)C` [PC 20:2@_22:6], the “TIMS collisional cross section” value (sample type: Mouse Liver, ion (formula + adduct): [C50H84NO8P+HCOO] 1-) was determined as 303.9 Å². `CCCCCCC/C=C\CCCCCCCC(=O)O[C@H](COCCCCCCCCCCCCCCCCCC)COP(=O)(O)OCCN` [PE O- 18:0@_17:1]: the “TIMS collisional cross section” value (sample type: Human plasma, ion (formula + adduct): [C40H80NO7P+AcO] 1-) amounted to 292.4 Å².
